Laboratory results as given in patent US5112835A, “6-substituted acyclopyrimidine nucleoside derivatives and antiviral agents containing the same as active ingredient thereof” (Mitsubishi Kasei Corporation, priority 1988, dated 1992).

What was measured:
HIV [1] = assay: Inhibitory activity for HIV proliferation (HIV antigen expression in HUT-78 cells, indirect immunofluorescence assay); assay type: cell-based
Experimental: In the same culture as that for the MT-4 cells, HUT-78 cells (human T cell clone which is not destroyed by the infection of HIV and releases HIV) were infected with HIV in an amount of 0.4 HIV per HUT-78 cell. Immediately thereafter, a predetermined concentration of 1-[(2-hydroxyethoxy)methyl]-6-phenylthiothymine was added to the culture medium and the cells were cultured at 37° C.
Every four days, 3/4 of the culture solution was exchanged and after 12 days of incubation the number of the cells positive to an HIV antigen was counted by indirect immunofluorescence assay using HIV antiserum (positive to the coating protein and core protein of HIV) which had been obtained from an HIV-infected patient.
For comparison, a similar experiment was carried out by using 2',3'-dideoxyadenosine.

HUT-78 cells = assay: Toxicity to HUT-78 cells; assay type: cell-based, human; settings: 100 μM
[2] = Cytotoxicity to MT-4 cells (not infected with HIV); assay type: cell-based; settings: human, 5 days, 37° C., read-out: 50% cytotoxic concentration to MT-4 cells
Experimental: (§1) In RPMI 1640 DM culture medium containing 20 mM of Hepes buffer solution, 10% fetal bovine serum and 20 µg/ml of gentamycin, 3×10^4 MT-4 cells (human T cell clone which is destroyed by the infection of HIV) were infected with HIV in an amount of 100 times as large as expected to cause 50% infection of the cells. Immediately thereafter, a predetermined amount of sample was added to the culture medium using 50 mg/ml sample solutions in dimethyl sulfoxide and the cells were cultured at 37° C.
(§2) After 5 days of incubation, the number of existing cells was counted to determine the concentration of the compound for preventing the death of 50% of the MT-4 cells. Separately, MT-4 cells were cultured in the same way as above except that they were not infected with HIV to determine the concentration of the compound at which 50% of the MT-4 cells were destroyed.

HIV [3] = assay: Inhibitory activity for HIV infection (preventing the death of 50% of the MT-4 cells); assay type: cell-based; settings: Human immunodeficiency virus 1, MT4, 120 h, 5 days of incubation, 37° C., read-out: 50% inhibitory concentration of HIV infection
Experimental: as §1, §2

host cell = settings: background art statement; clinical treatment of HIV-infection; cited from earlier work

SMILES | CC50 at 120 h [2] [µM] | IC50 (HIV [3]) [µM] | other results
Nc1ncnc2c1ncn2[C@H]1CC[C@@H](CO)O1 [2',3'-dideoxyadenosine, reference compound] | – | – | prevention of the expression of the HIV antigen (HIV [1]; at a similar concentration to the present compound (20 μM)): completely prevented the expression of the antigen; toxicity to the HUT-78 cells (HUT-78 cells): significant toxicity to the HUT-78 cells
Cc1c(SC2CCCCC2)n(COCCO)c(=O)[nH]c1=O [compound 25] | > 250 | 18 | –
Cc1c(Sc2cccc([N+](=O)[O-])c2)n(COCCO)c(=O)[nH]c1=O [compound 17] | > 250 | 34 | –
Cc1c(Sc2ccccc2)n(COCCO)c(=S)[nH]c1=O [compound 59, 1-[(2-hydroxyethoxy)methyl]-2-thio-6-phenylthiothymine] | 125 | 0.98 | –
COc1ccccc1Sc1c(C)c(=O)[nH]c(=O)n1COCCO [compound 12] | > 250 | 19 | –
COc1cccc(Sc2c(C)c(=O)[nH]c(=O)n2COCCO)c1 [compound 13] | > 250 | 22 | –
Cc1cccc(Sc2c(C)c(=O)[nH]c(=O)n2COCCO)c1 [compound 7] | > 250 | 5.1 | –
Cc1c(Sc2ccccc2)n(COCCO)c(=O)[nH]c1=O [compound 1, 1-[(2-hydroxyethoxy)methyl]-6-phenylthiothymine] | > 250 | 7 | prevention of the expression of the HIV antigens (HIV [1]; 20 μM, 12 days of incubation): completely prevented the expression of the antigens; IC50 (HIV [1]; Human immunodeficiency virus 1, HuT78, 288 h, 12 days of incubation, indirect immunofluorescence, read-out: 50% inhibitory concentration (expression of HIV antigens)): 5.2 µM; toxicity to the HUT-78 cells (HUT-78 cells): no toxicity to the HUT-78 cells was observed
Cc1cn([C@H]2C[C@H](N=[N+]=[N-])[C@@H](CO)O2)c(=O)[nH]c1=O [3'-deoxy-3'-azidothymidine] | – | – | toxicity in the host cell (host cell): considerable toxicity in the host cell
Cc1c(Sc2cccc(Cl)c2)n(COCCO)c(=O)[nH]c1=O [compound 10] | > 250 | 13 | –
